Experiments:
E. coli ATCC 25922 = experiment: Phototoxicity test c.2) (BlueV light source, emission maximum approx. 420 nm, CFU count); type: cell-based, Escherichia coli; settings: light dose 15.7 J/cm^2, approx. 420 nm, 15 min at 17.5 mW/cm^2, vs reference control
Description: A sample of the bacterial cell Staphylococcus. aureus (ATCC number: 25923) or Escherichia. coli (ATCC number: 25922) was removed from a cryo-freeze culture and cultured under aerobic conditions at 37° C. and 175 rpm overnight in an orbital shaker (MAXQ4000, Thermo Scientific, Dubuque, Iowa, USA). Growth was carried out in 20 mL Todd-Hewitt broth (Carl Roth, Karlsruhe, Germany) supplemented with 0.3% of yeast extract (AppliChem, Darmstadt, Germany).
In a second experiment, the photosensitizers (PS) used were dissolved in Millipore water and adjusted to various concentrations. 25 μL of a bacterial suspension grown overnight (˜108/mL) was incubated with 25 μL of photosensitizer solution of the various concentrations at room temperature for 10 seconds in darkness in a 96-well plate.
Next, the suspension was irradiated for 5-20 minutes. For the irradiation, the light source BlueV from Waldmann (Villingen-Schwenningen, Germany) was used, which emits light from 380 to 480 nm (emission maximum at approximately 420 nm). The applied energy density was 17.5 mW/cm^2.
Each experiment was accompanied by three controls in order to exclude side effect of the irradiation/photosensitizer (PS) on the survival of the bacteria: (i) no PS, only light (=light control), (ii) no light, only PS (=dark control) and (iii) neither light nor PS (=reference control). The determination of the colony forming units (CFU) per mL was also carried out in accordance with the method published by Miles, Misra and Irwin described above in section c.1). All of the tests were carried out four times.
The photosensitizers (PS) SACUR-01a, SACUR-03 and SACUR-07 were tested against the bacterial strains S. aureus ATCC 25923 and E. coli ATCC 25922 (FIGS. 21-23). All of the remaining PS were tested against S. aureus ATCC 25923 (FIGS. 24-33). FIGS. 21-33 show the logarithmic reduction after illumination with respect to the reference control.
The average reference control (arithmetic mean with standard deviation) (no light, no PS) was 3.6×10^8/mL for E. coli. The logarithmic reduction after illumination is shown with respect to the reference control.

S. aureus ATCC 25923 = experiment: as above; type: cell-based, Staphylococcus aureus; settings: Staphylococcus aureus, ATCC25923, light or radiation study, 5 min, irradiation 5 minutes, approx. 420 nm, 17.5 mW/cm^2, 5.3 J/cm^2, vs reference control; for log reduction at 10 µM: read-out: Effectiveness against S. aureus: Reduction in CFU in log10 at concentration of 10 μM; for log reduction at 50 µM: read-out: Effectiveness against S. aureus: Reduction in CFU in log10 at concentration of 50 μM
Description: A sample of the bacterial cell Staphylococcus. aureus (ATCC number: 25923) or Escherichia. coli (ATCC number: 25922) was removed from a cryo-freeze culture and cultured under aerobic conditions at 37° C. and 175 rpm overnight in an orbital shaker (MAXQ4000, Thermo Scientific, Dubuque, Iowa, USA). Growth was carried out in 20 mL Todd-Hewitt broth (Carl Roth, Karlsruhe, Germany) supplemented with 0.3% of yeast extract (AppliChem, Darmstadt, Germany). In a second experiment, the photosensitizers (PS) used were dissolved in Millipore water and adjusted to various concentrations. 25 μL of a bacterial suspension grown overnight ( 108/mL) was incubated with 25 μL of photosensitizer solution of the various concentrations at room temperature for 10 seconds in darkness in a 96-well plate. Next, the suspension was irradiated for 5-20 minutes. For the irradiation, the light source BlueV from […], Germany) was used, which emits light from 380 to 480 nm (emission maximum at approximately 420 nm). The applied energy density was 17.5 mW/cm^2. Each experiment was accompanied by three controls in order to exclude side effect of the irradiation/photosensitizer (PS) on the survival of the bacteria: (i) no PS, only light (=light control), (ii) no light, only PS (=dark control) and (iii) neither light nor PS (=reference control). […] All of the tests were carried out four times. […] All of the remaining PS were tested against S. aureus ATCC 25923 (FIGS. 24-33). FIGS. 21-33 show the logarithmic reduction after illumination with respect to the reference control. […] The irradiation period was 5 minutes (emission maximum at approximately 420 nm) for an applied intensity of 17.5 mW/cm^2, i.e. an applied light energy (dosage) of 5.3 J/cm^2. The average reference control (arithmetic mean with standard deviation) (no light, no PS) was 3.9×10^8/mL. The logarithmic reduction after illumination is shown with respect to the reference control.

Question: What does the source list for COc1cc(/C=C/C(=O)CC(=O)/C=C/c2ccc(OCCN)c(OC)c2)ccc1OCCN.Cl.Cl [Curcumin 01a hydrochloride]?
Answer: Effectiveness against E. Coli: Reduction in CFU in log10 at concentration of 10 μM (E. coli ATCC 25922): >4 log10; Effectiveness against E. Coli: Reduction in CFU in log10 at concentration of 50 μM (E. coli ATCC 25922): >5 log10; log reduction at 10 µM (S. aureus ATCC 25923): > 3; log reduction at 50 µM (S. aureus ATCC 25923): > 5

Question: Which results are given for Cl.Cl.Cl.Cl.NCCOc1ccc(/C=C/C(=O)CC(=O)/C=C/c2ccc(OCCN)c(OCCN)c2)cc1OCCN [Curcumin 03 hydrochloride]?
Answer: Effectiveness against E. Coli: Reduction in CFU in log10 at concentration of 10 μM (E. coli ATCC 25922): >4 log10; Effectiveness against E. Coli: Reduction in CFU in log10 at concentration of 50 μM (E. coli ATCC 25922): >5 log10; log reduction at 10 µM (S. aureus ATCC 25923): > 4; log reduction at 50 µM (S. aureus ATCC 25923): > 5

— US11191855B2, “1,7-diaryl-1,6-heptadiene-3,5-dione derivatives, methods for the production and use thereof” (UNIVERSITÄTSKLINIKUM REGENSBURG, priority 2015, dated 2021)
